The values that follow come from patent US5527697A, “7-amino-3-methoxymethyl-3-cephem-4-carboxylic ester hydrolase, process for its preparation, and its use” (Hoechst Aktiengesellschaft, priority 1992, dated 1996).

Where a name gives a salt, the structure may show the parent alone.

Assay [1] deals with esterase according to the invention (MACA-ester hydrolase). As to the kind of experiment: substrate specificity of the esterase according to the invention. In kind it is biochemical. The source says: Following partial purification, the enzyme can be bound without difficulty, for example to the enzyme carrier VA-Epoxy-Biosynth®. The activity is normally determined by conversion of MACA-ester to MACA. HPLC or TLC is then employed for the quantitative evaluation of the amount of MACA that is formed.
The following table contains further information concerning the substrate specificity of the esterase according to the invention: […]

Assay [2] relates to immobilized enzyme (MACA-ester hydrolase). As to the kind of experiment: cleavage of MACA ester (R) with immobilized esterase. It is filed as biochemical, Nocardia sp. ATCC 53492. The following applies: within 6-8 hours; pH 6.8, 30° C.; 5 g substrate, 100 g moist immobilized enzyme. How it is done: 2.5 g of R-ester hydrochloride are dissolved in 800 ml of 50 mM potassium phosphate solution, pH=6.8. 100 g of moist, immobilized enzyme are then added with stirring. The pH is kept at 6.8 and the temperature at 30° C. Further 1.25 g amounts of substrate are added after 2.5 h and after 41/4 h. In all, the mixture contains 5 g of MACA ester (R). The cleavage proceeds within the space of 6-8 hours to 95% conversion according to HPLC. The cleavage solution is separated from the enzyme and lyophilized. About 10 g of a white solid are obtained.

[3] abbreviates: substrate concentration 100 mM, relative to MACA ester pro J = 100.
Where [4] appears, read: substrate concentration 2.5 mM, MACA ester pro J = 100.
Where [5] appears, read: substrate concentration 1.59 mM, HEPES, pH 6.95.
Setting [6] is: substrate concentration 2.5 mM, phosphate buffer, pH 6.8.

`CC(OC(=O)C(C)(C)C)OC(=O)C(C)(C)C`: in assay [1] (substrate concentration 50 mM), the “Activity U/mg” value stood at 3.5 U/mg and the “Activity U/ml” value came out at 1.4 U/ml. In assay [1] (substrate concentration 50 mM, relative to MACA ester pro J = 100), this compound gave an Activity % of 4%.

For the compound `CCOC(=O)C(C)N` (racemic) [D,L-alanine ethyl ester], in assay [1] (substrate concentration 100 mM), the “Activity U/mg” value is given as 40 U/mg and the “Activity U/ml” value is listed as 16 U/ml. In addition, the Activity % in assay [1] (setting [3]) stood at 45.5%.

For the compound `CCOC(=O)C(C)Cl` (stereo not shown) [Ethyl 2-chloro-propionate, ethyl 2-chloropropionate], in assay [1] (substrate concentration 100 mM), the “Activity U/mg” value is reported as 75 U/mg and the “Activity U/ml” value worked out at 30 U/ml. The Activity % in assay [1] (setting [3]) came out at 85.2%.

Consider `CCOC(=O)C(C)(C)C` [Ethyl pivalate], for which, in assay [1] (substrate concentration 100 mM), the “Activity U/mg” value is reported as 42.75 U/mg and the “Activity U/ml” value worked out at 17.1 U/ml. Moreover, the Activity % in assay [1] (setting [3]) was 48.6%.

Take `CCOC(=O)CC` [Ethyl propionate]: in assay [1] (substrate concentration 100 mM), the “Activity U/mg” value was determined as 50 U/mg and the “Activity U/ml” value is on record as 20 U/ml. In assay [1] (setting [3]), this compound displayed an Activity % of 56.8%.

Turning to `COCC1=C(C(=O)O[C@H](C)OC(=O)C(C)(C)C)N2C(=O)C(N)[C@@H]2SC1` (stereo partly drawn) [MACA ester pro J, (1R,S)-1-(2,2-dimethylpropionyloxy)-ethyl 7-amino-3-methoxymethyl-3-cephem-4-carboxylate], in assay [1] (substrate concentration 2.5 mM), the “Activity U/mg” value worked out at 87.75 U/mg and the “Activity U/ml” value turned out to be 35.2 U/ml. This compound gave an Activity % in assay [1] (setting [4]) of 100%.

As to `COCC1=C(C(=O)O[C@H](C)OC(=O)C(C)(C)C)N2C(=O)C(N)[C@@H]2SC1` (stereo partly drawn) [MACA ester pro K, (1R,S)-1-(2,2-dimethylpropionyloxy)-ethyl 7-amino-3-methoxymethyl-3-cephem-4-carboxylate], in assay [1] (substrate concentration 2.5 mM), the “Activity U/mg” value came to 87.75 U/mg and the “Activity U/ml” value was 35.1 U/ml. Besides, the Activity % in assay [1] (setting [4]) is listed as 99.7%.

As to `COCC1=C(C(=O)O[C@H](C)OC(=O)C(C)(C)C)N2C(=O)[C@@H](N)[C@H]2SC1` [R-ester hydrochloride], in assay [2], the “conversion according to HPLC” value is on record as 95%.

Regarding `CC(=O)OCC(COC(C)=O)OC(C)=O` [Triacetin], in assay [1] (substrate concentration 100 mM), the “Activity U/mg” value is on record as 92.75 U/mg and the “Activity U/ml” value is on record as 37.1 U/ml. This compound registered an Activity % in assay [1] (setting [3]) of 105.4%.

With `CCCC(=O)OCC(COC(=O)CCC)OC(=O)CCC` [Tributyrin], in assay [1] (substrate concentration 100 mM), the “Activity U/mg” value came out at 93.75 U/mg and the “Activity U/ml” value is 37.5 U/ml. The same compound showed an Activity % in assay [1] (setting [3]) of 106.5%.

As for `CC(=O)Oc1ccc([N+](=O)[O-])cc1` [p-Nitrophenyl acetate, p-nitrophenyl acetate], the “Activity U/mg” value in assay [1] (setting [5]) is listed as 76.0 U/mg; in assay [1] (setting [6]) it was 108.75 U/mg. Further, the results for the “Activity U/ml” value in assay [1] (setting [5]) and in assay [1] (setting [6]) were 30.4 U/ml and 43.5 U/ml, respectively. Besides, the Activity % is given as 86.4% in assay [1] (substrate concentration 1.59 mM, HEPES, pH 6.95, relative to MACA ester pro J = 100) and 123.6% in assay [1] (substrate concentration 2.5 mM, phosphate buffer, pH 6.8, relative to MACA ester pro J = 100).
